# Test system: Escherichia coli strain ATCC25922
# Assay: standard microdilution assay to determine minimum inhibitory concentrations (MICs)
# Type: cell-based
# Conditions: Escherichia coli strain ATCC25922, microdilution
# How it was run: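 MICs come from CLSI-guided microdilution in 100 μl, run alongside reference-strain performance standards. Values appear as "+" or "−" relative to 16 micrograms/ml, with "N/A" marking missing data.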
row,SMILES,E. coli ATCC25922 MIC
1,C[C@H](N)CCCc1cc(-c2cc3cn(-c4ccc([C@H](C)NCCCNC(=N)N)cc4)c(=O)nc3[nH]2)cc2c1OCCO2 [Compound 469],+ (a “+” indicates that the compound has an MIC value of 16 micrograms/ml or less)
2,C[C@H](N)CCCc1cc(SC(F)(F)F)c(F)c(-c2cc3cn(-c4ccc([C@H](C)NCCCNC(=N)N)cc4)c(=O)nc3[nH]2)c1 [Compound 471],+ (a “+” indicates that the compound has an MIC value of 16 micrograms/ml or less)
3,C=CC[C@H](NCCCNC(=N)N)c1ccc(-n2cc3cc(-c4cc(CCC[C@H](C)N)cc(Cl)c4F)[nH]c3nc2=O)cc1 [Compound 472],+ (a “+” indicates that the compound has an MIC value of 16 micrograms/ml or less)
4,C=C[C@H](NCCCNC(=N)N)c1ccc(-n2cc3cc(-c4cc(CCC[C@H](C)N)cc(SC(F)(F)F)c4)[nH]c3nc2=O)cc1 [Compound 473],+ (a “+” indicates that the compound has an MIC value of 16 micrograms/ml or less)
5,C=CC[C@H](NCCCNC(=N)N)c1ccc(-n2cc3cc(-c4cc(CCC[C@H](C)N)cc(C(F)(F)F)c4)[nH]c3nc2=O)cc1 [Compound 474],+ (a “+” indicates that the compound has an MIC value of 16 micrograms/ml or less)
6,C=C[C@H](NCCCNC(=N)N)c1ccc(-n2cc3cc(-c4cc(CCC[C@H](C)N)cc(Cl)c4F)[nH]c3nc2=O)cc1 [Compound 475],+ (a “+” indicates that the compound has an MIC value of 16 micrograms/ml or less)
7,N=C(N)NCCCNCc1ccc(-n2cc3cc(-c4cc(CCC5COCC5N)cc(OC(F)(F)F)c4)[nH]c3nc2=O)cc1 (stereo not drawn) [Compound 476],+ (a “+” indicates that the compound has an MIC value of 16 micrograms/ml or less)
8,C[C@H](NCCCNC(=N)N)c1ccc(-n2cc3cc(-c4cc(CCC5COCC5N)cc(OC(F)(F)F)c4)[nH]c3nc2=O)cc1 (stereo partly drawn) [Compound 477],+ (a “+” indicates that the compound has an MIC value of 16 micrograms/ml or less)
9,CC(N)COC(C)c1cc(-c2cc3cn(-c4ccc([C@H](C)NCCCNC(=N)N)cc4)c(=O)nc3[nH]2)cc(C(F)(F)F)c1 (stereo partly drawn) [Compound 478],+ (a “+” indicates that the compound has an MIC value of 16 micrograms/ml or less)
10,CCC(N)COC(C)c1cc(-c2cc3cn(-c4ccc(CNCCCNC(=N)N)cc4)c(=O)nc3[nH]2)cc(C(F)(F)F)c1 (stereo not drawn) [Compound 479],+ (a “+” indicates that the compound has an MIC value of 16 micrograms/ml or less)
11,CCC(N)COC(C)c1cc(-c2cc3cn(-c4ccc([C@H](C)NCCCNC(=N)N)cc4)c(=O)nc3[nH]2)cc(C(F)(F)F)c1 (stereo partly drawn) [Compound 480],+ (a “+” indicates that the compound has an MIC value of 16 micrograms/ml or less)
12,C=CC(NCCCNC(=N)N)c1ccc(-n2cc3cc(-c4cc(CCCC(C)N)cc(Cl)c4F)[nH]c3nc2=O)cc1 (stereo not drawn) [Compound 481],+ (a “+” indicates that the compound has an MIC value of 16 micrograms/ml or less)
13,C=CC(NCCCNC(=N)N)c1ccc(-n2cc3cc(-c4cc(CCCC(C)N)cc(C(F)(F)F)c4)[nH]c3nc2=O)cc1 (stereo not drawn) [Compound 482],+ (a “+” indicates that the compound has an MIC value of 16 micrograms/ml or less)
14,CC(N)CCCc1cc(-c2cc3cn(-c4ccc(CNCCCNC(=N)N)cc4)c(=O)nc3[nH]2)cc(C2CCCC2)c1 (stereo not drawn) [Compound 483],+ (a “+” indicates that the compound has an MIC value of 16 micrograms/ml or less)
15,CC(N)CCCc1cc(-c2cc3cn(-c4ccc(C(C)NCCCNC(=N)N)cc4)c(=O)nc3[nH]2)cc(C2CCCC2)c1 (stereo not drawn) [Compound 484],+ (a “+” indicates that the compound has an MIC value of 16 micrograms/ml or less)
16,CC(N)CCCc1cc(-c2cc3cn(-c4ccc(C5(NCCCNC(=N)N)CC5)cc4)c(=O)nc3[nH]2)cc(C(F)(F)F)c1 (stereo not drawn) [Compound 485],+ (a “+” indicates that the compound has an MIC value of 16 micrograms/ml or less)
17,CC(N)CCCc1cc(Cl)c(F)c(-c2cc3cn(-c4ccc(C5(NCCCNC(=N)N)CC5)cc4)c(=O)nc3[nH]2)c1 (stereo not drawn) [Compound 486],+ (a “+” indicates that the compound has an MIC value of 16 micrograms/ml or less)
18,COC(=O)CC(NCCCNC(=N)N)c1ccc(-n2cc3cc(-c4cc(CCCC(C)N)cc(Cl)c4F)[nH]c3nc2=O)cc1 (stereo not drawn) [Compound 487],+ (a “+” indicates that the compound has an MIC value of 16 micrograms/ml or less)
19,COC(=O)CC(NCCCNC(=N)N)c1ccc(-n2cc3cc(-c4cc(CCCC(C)N)cc(C(F)(F)F)c4)[nH]c3nc2=O)cc1 (stereo not drawn) [Compound 488],+ (a “+” indicates that the compound has an MIC value of 16 micrograms/ml or less)

row,SMILES,E. coli ATCC25922 MIC
1,CC(N)CCCc1cc(Cl)c(F)c(-c2cc3cn(-c4ccc(C(CC(=O)O)NCCCNC(=N)N)cc4)c(=O)nc3[nH]2)c1 (stereo not drawn) [Compound 489],+ (a “+” indicates that the compound has an MIC value of 16 micrograms/ml or less)
2,CC(N)CCCc1cc(-c2cc3cn(-c4ccc(C(CC(=O)O)NCCCNC(=N)N)cc4)c(=O)nc3[nH]2)cc(C(F)(F)F)c1 (stereo not drawn) [Compound 490],− (a “−” indicates that the compound has an MIC value greater than 16 micrograms/ml)
3,COC(=O)CC(NCCCNC(=N)N)c1ccc(-n2cc3cc(-c4cc(CCCC(C)N)cc(SC(F)(F)F)c4)[nH]c3nc2=O)cc1 (stereo not drawn) [Compound 491],+ (a “+” indicates that the compound has an MIC value of 16 micrograms/ml or less)
4,CC(N)CCCc1cc(-c2cc3cn(-c4ccc(C(C)NCCCNC(=N)N)cc4)c(=O)nc3[nH]2)c(F)c(Cl)c1F (stereo not drawn) [Compound 493],+ (a “+” indicates that the compound has an MIC value of 16 micrograms/ml or less)
5,COC(=O)C(NCCCNC(=N)N)c1ccc(-n2cc3cc(-c4cc(CCCC(C)N)cc(Cl)c4F)[nH]c3nc2=O)cc1 (stereo not drawn) [Compound 494],+ (a “+” indicates that the compound has an MIC value of 16 micrograms/ml or less)
6,CC(N)CCCc1cc(Cl)c(F)c(-c2cc3cn(-c4ccc(C(NCCCNC(=N)N)C(=O)O)cc4)c(=O)nc3[nH]2)c1 (stereo not drawn) [Compound 495],+ (a “+” indicates that the compound has an MIC value of 16 micrograms/ml or less)
7,COC(=O)C(NCCCNC(=N)N)c1ccc(-n2cc3cc(-c4cc(CCCC(C)N)cc(C(F)(F)F)c4)[nH]c3nc2=O)cc1 (stereo not drawn) [Compound 496],+ (a “+” indicates that the compound has an MIC value of 16 micrograms/ml or less)
8,CC(N)CCCc1cc(-c2cc3cn(-c4ccc(C(NCCCNC(=N)N)C(=O)O)cc4)c(=O)nc3[nH]2)cc(C(F)(F)F)c1 (stereo not drawn) [Compound 497],− (a “−” indicates that the compound has an MIC value greater than 16 micrograms/ml)
9,COC(=O)C(NCCCNC(=N)N)c1ccc(-n2cc3cc(-c4cc(CCCC(C)N)cc(SC(F)(F)F)c4)[nH]c3nc2=O)cc1 (stereo not drawn) [Compound 498],+ (a “+” indicates that the compound has an MIC value of 16 micrograms/ml or less)
10,CC(N)CCCc1cc(-c2cc3cn(-c4ccc(CNCCCNC(=N)N)cc4)c(=O)nc3[nH]2)c(F)c(Cl)c1F (stereo not drawn) [Compound 499],+ (a “+” indicates that the compound has an MIC value of 16 micrograms/ml or less)
11,CC(N)CCCc1cc(SC(F)(F)F)cc(-c2cc3cn(-c4ccc(C5(NCCCNC(=N)N)CC5)cc4)c(=O)nc3[nH]2)c1 (stereo not drawn) [Compound 500],+ (a “+” indicates that the compound has an MIC value of 16 micrograms/ml or less)
12,C=CC(NCCCNC(=N)N)c1ccc(-n2cc3cc(-c4cc(CCCC(C)N)cc(C(F)(F)F)c4)[nH]c3nc2=O)cc1 (stereo not drawn) [Compound 501],+ (a “+” indicates that the compound has an MIC value of 16 micrograms/ml or less)
13,C=CC(NCCCNC(=N)N)c1ccc(-n2cc3cc(-c4cc(CCCC(C)N)cc(SC(F)(F)F)c4)[nH]c3nc2=O)cc1 (stereo not drawn) [Compound 502],+ (a “+” indicates that the compound has an MIC value of 16 micrograms/ml or less)
14,CC(N)CCCc1cc(SC(F)(F)F)cc(-c2cc3cn(-c4ccc(C(NCCCNC(=N)N)C(=O)O)cc4)c(=O)nc3[nH]2)c1 (stereo not drawn) [Compound 503],− (a “−” indicates that the compound has an MIC value greater than 16 micrograms/ml)
15,CC(N)CCCc1cc(-c2cc3cn(-c4ccc(C(C)NCCCNC(=N)N)cc4)c(=O)nc3[nH]2)cc(C(O)C(F)(F)F)c1 (stereo not drawn) [Compound 504],+ (a “+” indicates that the compound has an MIC value of 16 micrograms/ml or less)
16,CC(N)CCCc1cc(-c2cc3cn(-c4ccc(C(CCO)NCCCNC(=N)N)cc4)c(=O)nc3[nH]2)cc(C(F)(F)F)c1 (stereo not drawn) [Compound 505],+ (a “+” indicates that the compound has an MIC value of 16 micrograms/ml or less)
17,CC(N)CCCc1cc(Cl)c(F)c(-c2cc3cn(-c4ccc(C(CCO)NCCCNC(=N)N)cc4)c(=O)nc3[nH]2)c1 (stereo not drawn) [Compound 506],+ (a “+” indicates that the compound has an MIC value of 16 micrograms/ml or less)
18,CC(N)CCCc1cc(SC(F)(F)F)cc(-c2cc3cn(-c4ccc(C(CCO)NCCCNC(=N)N)cc4)c(=O)nc3[nH]2)c1 (stereo not drawn) [Compound 507],+ (a “+” indicates that the compound has an MIC value of 16 micrograms/ml or less)

# Same assay, conditions: Escherichia coli strain ATCC25922, standard microdilution assay
row,SMILES,E. coli ATCC25922 MIC
1,Cc1cc(CCC[C@H](C)N)cc(-c2cc3cn(-c4ccc(CNCCCNC(=N)N)cc4)c(=O)nc3[nH]2)c1C [Compound 467],+ (a “+” indicates that the compound has an MIC value of 16 micrograms/ml or less)
2,Cc1cc(CCC[C@H](C)N)cc(-c2cc3cn(-c4ccc([C@H](C)NCCCNC(=N)N)cc4)c(=O)nc3[nH]2)c1C [Compound 468],+ (a “+” indicates that the compound has an MIC value of 16 micrograms/ml or less)

# Reference: US9221827B2, “Antimicrobial compounds and methods of making and using the same” (Melinta Therapeutics, Inc., priority 2011, dated 2015)
